Experimental data published in patent publication US5286729A, “Angiotensin II receptor blocking 2,3,6 substituted quinazolinones” (American Cyanamid Company, priority 1993, dated 1994).

Molecular target: T1, Angiotensin II Receptor (Bos taurus, UniProt P25104)
T1 construct: The brownish tissue forming the adrenal cortex is scraped off and finely minced with scissors before homogenization; from tissue; host or cells: beef adrenal cortex, microsomal (100,000 x g) membranes; adrenals from a local slaughter house (Maxwell-Cohen)
T1 sequence (P25104 1-359): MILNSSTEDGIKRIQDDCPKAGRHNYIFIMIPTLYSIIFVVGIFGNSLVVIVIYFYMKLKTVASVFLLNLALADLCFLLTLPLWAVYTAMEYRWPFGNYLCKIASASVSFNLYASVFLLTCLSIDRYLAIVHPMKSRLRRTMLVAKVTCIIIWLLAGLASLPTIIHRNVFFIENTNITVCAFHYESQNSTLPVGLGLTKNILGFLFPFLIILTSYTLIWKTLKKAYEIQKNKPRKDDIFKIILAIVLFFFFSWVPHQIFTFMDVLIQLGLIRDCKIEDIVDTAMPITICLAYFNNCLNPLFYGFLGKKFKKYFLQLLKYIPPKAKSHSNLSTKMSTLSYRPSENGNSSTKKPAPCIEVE
Experiment: Receptor Binding Assay, binding of [125I](Sar1,Ile8)AngII to beef adrenal cortex membranes
Conditions: beef adrenal membranes; [125I](Sar1,Ile8)AngII; 60 min, room temperature, pH 7.4
From the text: Beef adrenals are obtained from a local slaughter house (Maxwell-Cohen). [^125 I](Sar^1,Ile^8)AngII, S.A. 2200 Ci/mmole, is purchased from Dupont (NEN®, Boston, Mass.).
Approximately sixteen (16) to twenty (20) beef adrenal glands are processed as follows: fresh adrenal glands received on crushed ice are cleaned of fatty tissues and the tough membranes encapsulating the glands are removed and discarded. The brownish tissue forming the adrenal cortex is scraped off and finely minced with scissors before homogenization. Care is taken to avoid contamination with medullary tissue during dissection. The scraped cortices are suspended in twenty volumes of an ice-cold buffer medium consisting of 10 mM Tris.HCl (pH 7.4 at 22° C.) and containing 1.0 mM EDTA and 0.2M sucrose. Unless otherwise indicated, all subsequent operations are done at 4° C. […] The homogenate is centrifuged first at low speed (3,000×g) for 10 min. […] The pelleted membrane is reconstituted in 50.0 mM Tris.HCl buffer containing 0.1 mM of phenylmethylsulfonyl fluoride (PMSF) to give approximately a protein concentration of 2.5 mg per ml of tissue suspension. The membrane preparation is finally aliquoted in 1.0 ml volumes and stored at -70° C. until use in the binding assays. […]

IC50: 130 nM
SMILES: CCCCc1nc2ccc(COc3ccccn3)cc2c(=O)n1Cc1ccc(-c2ccccc2-c2nnn[nH]2)cc1.Cl [Example 12, 2-Butyl-6-[(2-pyridinyloxy)methyl]-3-[[2'-(1H-tetrazol-5-yl)[1,1'-biphenyl]-4-yl]methyl]-4(3H)-quinazolinone monohydrochloride]
